From US7423017B2, “Method for treating cartilage disorders” (Genentech, Inc., priority 1997, dated 2008)
Entries after “also recorded” stand apart in the source; their conditions may differ. Positions of bridges follow the written chain, without caps; N, C: chain ends. Residues, ends and D or L forms follow the SMILES beside them. No end group written: not given here.

Tests used:
[1] = test system: human articular cartilage explants; test: human articular cartilage explants: matrix breakdown (proteoglycan release); type: cell-based; details: peptide 0.1 mg/ml
Protocol: (§1) The metacarpophalangeal joint of a six-month old pig was cultured as described above for bovine articular cartilage in Example 8. This explant was cultured in media alone or in media with D12K, D12R, or wild-type IGF-1 (at 10 nM) alone or in the presence of IL-1α at 1 ng/ml, as described above. Human explants were from patients undergoing joint replacement surgery. Articular cartilage was harvested, aliquoted (40-45 mg/tube) and cultured as above. […] Fresh media was added on days 0, 1, 2, and 3. Matrix breakdown was determined by measuring the amount of proteoglycans in the media using the DMMB assay as set forth above. Matrix (proteoglycan) synthesis was determined by measuring ^35S-sulfate uptake as set forth above.
(§2) Human articular cartilage explants were cultured in media or treated with IGF-1 by itself or in combination with either BP3-40 or BP3-15 at 0.1 mg/ml as set forth above. Matrix breakdown was determined by measuring the release of proteoglycans into media as described above. Matrix synthesis was determined by counting the amount of ^35S-sulfate incorporated into the cartilage tissue as described above.

[2] = test system: human articular cartilage explants; test: human articular cartilage explants from diseased joints: matrix synthesis (35S-sulfate uptake); type: cell-based; details: for matrix synthesis, IGF-1 in combination with peptide: IGF-1 40 ng/ml, peptide 0.1 mg/ml; for matrix synthesis in diseased human articular cartilage: 40 ng/ml
Protocol: as §1, §2
The same Material and Methods (for human tissue) were used as described above, using articular cartilage explants from human joints removed from patients undergoing joint replacement. These explants were cultured with IGF-1 alone at 40 ng/ml, or IGF-1 with BP1-17, BP3-15, or BP1-16 (0.1 mg/ml), or IGF-1 with buffer (HEPES).

[3] = target: T1, IGFBP-3 (Homo sapiens, UniProt P17936); test: binding curves of phage displaying IGF-1 variants on immobilized IGFBP-1 or IGFBP-3
T1 construct: made in house
Text: Phage particles displaying IGF-1 variants in which the aspartate residue at position 12 was mutated to lysine (D12K) or arginine (D12R) were constructed as described in Dubaquié and Lowman, supra. Furthermore, these protein variants were expressed in E. coli and purified as described in Dubaquié and Lowman, supra.
The wild-type IGF-1 phage particles bound to IGFBP-1 or IGFBP-3 generated similar detection signal intensities.

[4] = test system: porcine articular cartilage explants; test: porcine articular cartilage explants: matrix breakdown; type: cell-based, pig; details: 10 nM; for IL-1α-induced matrix breakdown: IL-1α 1 ng/ml
Protocol: as §1

[5] = test system: porcine articular cartilage explants; test: porcine articular cartilage explants: matrix synthesis; type: cell-based, pig; details: 10 nM; for IL-1α-induced inhibition of proteoglycan synthesis: IL-1α 1 ng/ml
Protocol: as §1

[6] = target: T1, IGFBP-3; test: competitive phage ELISA of IGF-1 mutants, IGFBP-3; type: binding; details: phage display, soluble IGFBP-3 competitor
Summary of the method: (§3)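 Alanine-scan IGF-1 mutants on phage competed with soluble IGFBP-1 or IGFBP-3 (threefold dilutions over six logs, from 5 μM and 500 nM respectively) for binding to plates coated with 1 μg/ml of the same protein in PBS pH 7.2. Incubation was 1 h at room temperature in 0.5% Tween 20/PBS. Bound phage was detected by anti-phage/HRP ELISA; IC50 is the mean±SD of at least two clones.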

[7] = target: T2, IGFBP-1 (Homo sapiens, UniProt P08833); test: competitive phage ELISA of IGF-1 mutants, IGFBP-1; type: binding; set-up: made in house; host or cells: CHO cells; details: phage display, soluble IGFBP-1 competitor
T2 sequence (P08833 26-259): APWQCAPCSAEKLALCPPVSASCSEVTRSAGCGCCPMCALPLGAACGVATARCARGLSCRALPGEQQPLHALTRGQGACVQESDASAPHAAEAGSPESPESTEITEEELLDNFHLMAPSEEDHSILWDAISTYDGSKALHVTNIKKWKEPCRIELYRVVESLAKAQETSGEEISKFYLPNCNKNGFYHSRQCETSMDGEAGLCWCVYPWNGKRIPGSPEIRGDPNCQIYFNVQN
Summary of the method: as §3

[8] = test system: IGFBP-1; test: competitive phage ELISA of IGF-1 mutants, IGFBP-1; type: binding, human; details: relative IC50 IGFBP-1/relative IC50 IGFBP-3
Summary of the method: as §3

[9] = target: T2, IGFBP-1; details: cited from earlier work
[10] = test system: IGFBP-1; test: BIACORE kinetics: IGFBP-1 binding to immobilized IGF-1 variants; set-up: species or system human; details: from relative KD values
Protocol: (§4) The binding affinities of the IGF variants for IGFBP-1 and IGFBP-3 were determined using a BIACORE™-2000 real time kinetic interaction analysis system (Biacore, Inc., Piscataway, N.J.) to measure association (ka) and dissociation (kd) rates. Carboxymethylated dextran biosensor chips (CM5, BIAcore Inc.) were activated with EDC (N-ethyl-N′-(3-dimethylaminopropyl)-carbodiimide hydrochloride) and NHS(N-hydroxysuccinimide) according to the supplier's instructions. For immobilization, IGF mutants in 20 mM sodium acetate, pH 4.8, were injected onto the biosensor chip at a concentration of 50 μg/ml to yield approximately 450-600 RU's (resonance-responce units) of covalently-coupled protein. Unreacted groups were blocked with an injection of 1 M ethanolamine. Kinetic measurements were carried out by injecting two-fold serial dilutions (starting at 1 μM) of either IGFBP-1 or IGFBP-3 in running buffer (PBS, 0.05% TWEEN 20™, 0.1% ovalbumin, 0.1% sodium azide) at 25 °C using a flow rate of 20 μl/min. Association rates (ka) and dissociation rates (kd) were calculated separately using a 1:1 Langmuir™ association model in the BIACORE™ evaluation software v. 3.0. The equilibrium dissociation constant (KD) was calculated as kd/ka.
For measurements of IGFBP-1 binding to IGF-1, kinetics experiments were conducted using a single-cysteine IGF-1 variant, Y31C, that was immobilized onto the sensor chip surface via a disulfide linkage (BIACORE™ System Manual Supplement, 5a-1, Pharmacia (1991)).

[11] = target: T1, IGFBP-3; test: BIACORE kinetics: IGFBP-3 binding to immobilized IGF-1 variants; details: 25 C
Protocol: as §4

[12] = target: T2, IGFBP-1; test: BIACORE kinetics: IGFBP-1 binding to immobilized IGF-1 variants; set-up: made in house; host or cells: CHO cells; details: 25 C
[13] = target: T3, type I IGF receptor (Homo sapiens, UniProt P08069); test: KIRA assay of IGF type I receptor activation; type: cell-based; details: about 13 nM or […] variant
T3 construct: monitors the extent of cytoplasmic IGF receptor phosphorylation upon extracellular stimulation by ligand; endogenous in cells; MCF-7 by my knowledge of the cited method
Text: The Kinase Receptor Activation Assay (KIRA) specifically and quantitatively monitors the extent of cytoplasmic IGF receptor phosphorylation upon extracellular stimulation by ligand (Sadick et al., J. Pharm. Biomed. Analysis, 19 (6): 883-891 (1999)).

[14] = target: T2, IGFBP-1; test: biotinylated-IGFBP-1 ELISA plate assay of IGF-I:IGFBP-1 inhibition; type: binding; set-up: made in house; host or cells: CHO cells
Text: A second series of peptides made use of non-natural amino acids to probe whether other structural features such as an added methyl group at the alpha carbon, or an isomer (D-alanine) could affect peptide binding to IGFBP-1.
BP1-16 (SEQ ID NO:35), a 13-residue version of BP1-01 (lacking the C-terminal Gly), had similar affinity to that of BP1-01. Substitutions at the N-terminus or C-terminus yielded affinity improvements.

[15] = target: T2, IGFBP-1; test: KIRA cell-based assay of IGF-like activity displaced by peptides from IGF-1/IGFBP-1; details: 2 nM IGF-1, […] IGFBP-1
Protocol: A cell-based (KIRA) assay was previously described for measuring the amount of IGF-like activity displaced by peptides from mixtures of IGF-1 and binding proteins (Lowman et al., supra, 1998; WO 98/45427, supra). The KIRA assay was used to compare in vitro bioactivity of BP1-16, BP1-02, BP1-25, and BP1-40. […] IGF-1 and peptide were mixed and added to cells expressing IGF receptor for 30 min, then IGFBP-1 was added for an additional 1 h.

[16] = target: IGFBP-3; test: displacement of 125I-IGF-1 from IGFBPs in human serum, size-exclusion chromatography; type: binding; details: peptide at 0.2 mM
Protocol: This Example tests an IGFBP-3-specific peptide, BP3-15, for its ability to block the binding of ^125I-IGF-1 in human serum. Human serum was incubated with ^125I-IGF-1 ± the peptide and the amount of tracer bound to IGFBPs via size-exclusion chromatography was measured.

[17] = target: T1, IGFBP-3; test: BIACORE competition assay: IGFBP-3 binding to immobilized IGF-1; details: IGF-1 inhibition; wt = BP3-01-ox

T1 sequence (P17936 28-291): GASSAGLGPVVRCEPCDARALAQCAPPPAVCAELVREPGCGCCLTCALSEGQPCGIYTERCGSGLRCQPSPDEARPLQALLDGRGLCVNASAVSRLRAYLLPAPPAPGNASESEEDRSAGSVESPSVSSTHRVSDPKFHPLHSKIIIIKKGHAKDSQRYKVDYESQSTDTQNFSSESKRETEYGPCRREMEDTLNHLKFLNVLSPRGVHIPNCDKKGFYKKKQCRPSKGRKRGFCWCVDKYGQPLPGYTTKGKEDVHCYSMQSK
T3 sequence (P08069 31-736 limits assumed): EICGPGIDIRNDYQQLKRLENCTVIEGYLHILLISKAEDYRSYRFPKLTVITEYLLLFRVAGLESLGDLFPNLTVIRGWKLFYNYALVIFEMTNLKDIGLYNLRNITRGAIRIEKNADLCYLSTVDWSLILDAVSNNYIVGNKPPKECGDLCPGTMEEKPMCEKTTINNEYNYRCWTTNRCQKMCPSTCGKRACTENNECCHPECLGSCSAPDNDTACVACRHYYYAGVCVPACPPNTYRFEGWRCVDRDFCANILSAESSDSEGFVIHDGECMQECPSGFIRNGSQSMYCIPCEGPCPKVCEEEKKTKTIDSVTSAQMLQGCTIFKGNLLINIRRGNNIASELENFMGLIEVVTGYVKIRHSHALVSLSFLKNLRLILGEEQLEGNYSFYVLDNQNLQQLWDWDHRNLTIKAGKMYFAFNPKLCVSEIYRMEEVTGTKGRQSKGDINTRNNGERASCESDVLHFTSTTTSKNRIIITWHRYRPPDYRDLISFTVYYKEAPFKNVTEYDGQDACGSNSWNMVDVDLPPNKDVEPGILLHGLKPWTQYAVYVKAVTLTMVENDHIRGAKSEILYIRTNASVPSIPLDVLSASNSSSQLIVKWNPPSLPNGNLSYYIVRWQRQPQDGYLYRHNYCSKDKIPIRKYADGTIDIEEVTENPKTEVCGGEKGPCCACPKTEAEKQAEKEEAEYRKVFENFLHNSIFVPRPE

Molecule: CC(=O)N[C@@H](CO)C(=O)N[C@@H](CCC(=O)O)C(=O)N[C@@H](CCC(=O)O)C(=O)N[C@H](C(=O)N[C@H]1CSSC[C@@H](C(=O)N[C@@H](CC(N)=O)C(N)=O)NC(=O)[C@H](CC(C)C)NC(=O)[C@H](Cc2ccc(O)cc2)NC(=O)[C@H](Cc2c[nH]c3ccccc23)NC(=O)[C@H](CCC(=O)O)NC(=O)[C@H](C)NC(=O)[C@H](C(C)C)NC(=O)[C@@H]2CCCN2C(=O)[C@H](Cc2c[nH]c3ccccc23)NC1=O)C(C)C [BP3-40] (Ac-SEEVCWPVAEWYLCN-NH2; disulfide 5-14)
- matrix breakdown, IGF-1 in combination with peptide [1]: appeared to enhance the ability of IGF-1 to decrease matrix breakdown
- matrix synthesis, IGF-1 in combination with peptide [2]: to stimulate matrix synthesis

Molecule: D12R: IGF-1 variant, aspartate at position 12 mutated to arginine
- phage binding signal intensity, IGFBP-3 versus IGFBP-1 [3]: displayed lower signal intensities when binding to IGFBP-3 compared to IGFBP-1
- cartilage matrix breakdown [4]: inhibited cartilage matrix breakdown
- IL-1α-induced matrix breakdown [4]: inhibited the catabolic effects
- matrix synthesis [5]: increased matrix synthesis
- IL-1α-induced inhibition of proteoglycan synthesis [5]: prevented IL-1α-induced inhibition of proteoglycan synthesis
- matrix synthesis in diseased human articular cartilage [2]: stimulated matrix synthesis in diseased human articular cartilage

Molecule: R50A: IGF-1 single alanine mutant
- IC50 [6]: 0.64 ± 0.18 nM
- IC50 [7]: 16.2 ± 1.8 nM
- relative specificity [8]: 2.3
- decrease in affinity for IGFBP-1 [9]: 3 fold

Molecule: D12K: IGF-1 variant, aspartate at position 12 mutated to lysine
- phage binding signal intensity, IGFBP-3 versus IGFBP-1 [3]: displayed lower signal intensities when binding to IGFBP-3 compared to IGFBP-1
- cartilage matrix breakdown [4]: inhibited cartilage matrix breakdown
- IL-1α-induced matrix breakdown [4]: inhibited the catabolic effects
- matrix synthesis [5]: increased matrix synthesis
- IL-1α-induced inhibition of proteoglycan synthesis [5]: prevented IL-1α-induced inhibition of proteoglycan synthesis
- matrix synthesis in diseased human articular cartilage [2]: stimulated matrix synthesis in diseased human articular cartilage

Molecule: F16A: IGF-1 single alanine mutant
- Specificity Relative BP-1 / Relative BP-3 [10]: 3.6
- Binding to IGFBP-3 ka [11]: 1.1 ± 0.4 ×10^5 M^−1s^−1
- IC50 [6]: 1.32 ± 0.25 nM
- Binding to IGFBP-1 ka [12]: 1.9 ± 0.6 ×10^4 M^−1s^−1
- IC50 [7]: 57.8 ± 20.1 nM
- relative specificity [8]: 4.0
- IGF type I receptor activation, single-concentration KIRA [13]: retain biological activity

Molecule: CRAGPLQWLCEKYF-nh2 (CRAGPLQWLCEKYF-NH2; disulfide 1-10 (inferred)) [BP1-16]
- Fold potency reduction IC50 (mut) / IC50 (BP1-16) [14]: -1-
- matrix synthesis, IGF-1 in combination with peptide [2]: enhance anabolism
- EC20 (concentration at which 20% of maximal IGF-1 activity is observed) [15]: 150 to 200 nM

Molecule: CRAGPLQHLCEKYF [BP1-24]
- Fold potency reduction IC50 (mut) / IC50 (BP1-16) [14]: < 10

Molecule: CC(C)C[C@@H]1NC(=O)[C@H](Cc2ccc(O)cc2)NC(=O)[C@H](Cc2c[nH]c3ccccc23)NC(=O)[C@H](CCC(=O)O)NC(=O)[C@H](C)NC(=O)[C@H](C(C)C)NC(=O)[C@@H]2CCCN2C(=O)[C@H](Cc2c[nH]c3ccccc23)NC(=O)[C@@H](NC(=O)[C@@H](NC(=O)[C@H](CCC(=O)O)NC(=O)[C@H](CCC(=O)O)NC(=O)[C@@H](N)CO)C(C)C)CSSC[C@@H](C(=O)N[C@@H](CC(N)=O)C(=O)O)NC1=O [BP3-15] (H-SEEVCWPVAEWYLCN-OH; disulfide 5-14; N-terminus and C-terminus assumed)
- 125I-IGF-1 binding to the 44-KD IGFBPs [16]: did not decrease
- decrease in 125I-IGF-1 associated with the 150-KD IGF/IGFBP-3/ALS complex [16]: ~42%
- increase in the amount of free 125I-IGF-1 [16]: 59%
- matrix breakdown, IGF-1 in combination with peptide [1]: appeared to enhance the ability of IGF-1 to decrease matrix breakdown
- IC50 (mut) / IC50 (wt) [17]: 0.36
- matrix synthesis, IGF-1 in combination with peptide [2]: to stimulate matrix synthesis; also recorded: enhance anabolism

Molecule: F25A: IGF-1 single alanine mutant
- Specificity Relative BP-1 / Relative BP-3 [10]: 4.9
- Binding to IGFBP-3 ka [11]: 1.5 ± 0.5 ×10^5 M^−1s^−1
- IC50 [6]: 3.69 ± 0.25 nM
- Binding to IGFBP-1 ka [12]: 1.5 ± 0.5 ×10^4 M^−1s^−1
- IC50 [7]: 181 ± 46 nM
- IGF type I receptor activation, single-concentration KIRA [13]: retain biological activity
